Measured values taken from patent US5886146A, “Inhibitors of thrombosis” (Corvas International, Inc., priority 1995, dated 1999).
Read-outs that look alike come from different tables or passages of the source. Peptide text beside a SMILES is read from it. * marks the point of attachment. Hydrocinnamoyl = O=C(CCc1ccccc1)*

Key:
human α-thrombin = human α-thrombin (Homo sapiens, UniProt P00734); assay: Thrombin assay, chromogenic substrate Pefachrome t-PA; assay type: biochemical; settings: purified human enzyme 0.25 nM, 30 minute incubation, substrate 300 μM, HBSA pH 7.5
Protocol: (§1) The buffer used for all assays was HBSA (10 mM HEPES, pH 7.5, 150 mM sodium chloride, 0.1% bovine serum albumin). […] Following a 30 minute incubation at ambient temperature, 50 μL of the substrate at the concentrations specified below, was added to the wells yielding a final total volume of 200 μL.
Thrombin catalytic activity was determined using the chromogenic substrate Pefachrome t-PA (CH3 SO2 -D-hexahydrotyrosine-glycyl-L-arginine-p-nitroaniline, obtained from Pentapharm Ltd.).

Human factor Xa = molecular target: T1, Human factor Xa (Homo sapiens, UniProt P00742); assay: Factor Xa assay, chromogenic substrate S2765; assay type: biochemical; settings: purified human enzyme 0.5 nM, 30 minute incubation, substrate 250 μM, HBSA pH 7.5
T1 construct: Human factor Xa was prepared from purified human factor X obtained from Enzyme Research Laboratories; purchased Enzyme Research Laboratories
T1 sequence (P00742 235-488 limits assumed): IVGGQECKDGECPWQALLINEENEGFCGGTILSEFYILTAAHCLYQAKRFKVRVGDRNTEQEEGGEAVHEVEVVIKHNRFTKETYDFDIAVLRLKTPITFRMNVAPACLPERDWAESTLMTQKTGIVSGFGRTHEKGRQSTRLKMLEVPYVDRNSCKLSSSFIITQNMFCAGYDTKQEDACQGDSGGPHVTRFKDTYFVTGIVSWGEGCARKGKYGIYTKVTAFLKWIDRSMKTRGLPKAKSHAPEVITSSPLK
T1 sequence (P00742 41-179 partner limits assumed): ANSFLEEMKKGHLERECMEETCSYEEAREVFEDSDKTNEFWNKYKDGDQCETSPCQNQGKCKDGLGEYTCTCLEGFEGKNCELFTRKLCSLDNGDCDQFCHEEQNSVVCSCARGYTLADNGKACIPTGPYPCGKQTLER
Protocol: as §1, with “μL. The initial velocity of chromogenic substrate hydrolysis was measured by the change in absorbance at 405 nm using a Thermo Max® Kinetic Microplate Reader over a 5 minute period in which less than 5% of the added substrate was utilized.” for “μL.”
Factor Xa catalytic activity was determined using the substrate, S2765 (N-α-benzyloxycarbonyl-D-argininyl-L-glycyl-L-arginine-p-nitroanilide dihydrochloride) which was obtained from Kabi Diagnostica. […] Human factor Xa was prepared from purified human factor X obtained from Enzyme Research Laboratories according to the method described by Bock, P. E. et al., Archives of Biochem. Biophys. 273: 375 (1989). The enzyme was diluted into HBSA prior to the assay in which the final concentration was 0.5 nM.

human plasmin = human plasmin (Homo sapiens, UniProt P00747); assay: Plasmin assay, chromogenic substrate S-2251; assay type: biochemical; settings: purified human enzyme 1.0 nM, 30 minute incubation, substrate 300 μM, HBSA pH 7.5
Chain of human plasmin (P00747 581-810 limits assumed): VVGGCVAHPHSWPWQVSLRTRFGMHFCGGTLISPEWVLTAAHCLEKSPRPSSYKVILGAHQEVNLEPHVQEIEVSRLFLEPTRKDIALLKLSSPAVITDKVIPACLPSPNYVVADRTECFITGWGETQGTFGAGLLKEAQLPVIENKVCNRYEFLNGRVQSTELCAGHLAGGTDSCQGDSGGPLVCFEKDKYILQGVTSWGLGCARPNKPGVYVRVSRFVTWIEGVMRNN
Chain of human plasmin (P00747 97-580 partner limits assumed): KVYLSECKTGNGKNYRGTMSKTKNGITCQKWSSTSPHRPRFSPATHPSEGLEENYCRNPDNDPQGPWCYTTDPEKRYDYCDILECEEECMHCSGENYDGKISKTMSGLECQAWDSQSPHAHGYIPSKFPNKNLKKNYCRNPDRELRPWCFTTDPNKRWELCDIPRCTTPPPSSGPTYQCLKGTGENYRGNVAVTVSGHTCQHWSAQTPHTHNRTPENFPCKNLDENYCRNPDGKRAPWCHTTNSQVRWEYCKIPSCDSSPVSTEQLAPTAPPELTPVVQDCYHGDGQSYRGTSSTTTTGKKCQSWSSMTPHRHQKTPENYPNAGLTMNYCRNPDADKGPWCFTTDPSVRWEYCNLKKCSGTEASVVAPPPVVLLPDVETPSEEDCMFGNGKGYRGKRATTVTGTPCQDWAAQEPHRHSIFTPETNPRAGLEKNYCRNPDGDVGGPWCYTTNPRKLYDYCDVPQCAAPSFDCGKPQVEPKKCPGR

[1] = tested on: FeCl3-induced platelet-dependent arterial thrombosis; assay type: in vivo, rat; settings: for Clot Size: mean ± S.E.M.
From the text: Res., 60: 269-280 (1990). […] Res., 60: 269-280 (1990). […] The animals were then euthanized.

IC50 (human α-thrombin)	IC50 (Human factor Xa)	IC50 (human plasmin)	SMILES	Clot Size ([1]; Group 1, 25 μg/kg/min i.v. infusion)	Clot Size ([1]; Group 2, 50 μg/kg/min i.v. infusion)	Clot Size ([1]; Group 3, 100 μg/kg/min i.v. infusion)	Efficacy as an antithrombotic agent (in words) ([1]; rat FeCl3 model, i.v. infusion)
6.2 nM	241 nM		CCCC(CCC)C(=O)N[C@@H](CC(=O)O)C(=O)N1CCC[C@H]1C(=O)N[C@H](C=O)CCCNC(=N)N [2PrPent-Asp-Pro-Arg-al, N-(2-propylpentanoyl)-L-aspartyl-L-prolyl-L-argininal]				
92 nM	52 nM		N=C(N)NCCC[C@@H](C=O)NC(=O)[C@@H]1CCCN1C(=O)[C@H](CC(=O)O)NC(=O)CCc1ccccc1 [HCA-Asp-Pro-Arg-al, N-(3-phenylpropionyl)-L-aspartyl-L-prolyl-L-argininal] (Hydrocinnamoyl-Asp-Pro-Arg-aldehyde)	48.38 ± 24.71%	22.38 ± 21.0%	3.38 ± 5.44%	reduction in the incidence of occlusion and in clot size

Second part, the compound before the results:

SMILES	IC50 (human α-thrombin)	IC50 (Human factor Xa)	IC50 (human plasmin)	Clot Size ([1]; Group 1, 25 μg/kg/min i.v. infusion)	Clot Size ([1]; Group 2, 50 μg/kg/min i.v. infusion)	Clot Size ([1]; Group 3, 100 μg/kg/min i.v. infusion)	Efficacy as an antithrombotic agent (in words) ([1]; rat FeCl3 model, i.v. infusion)
CC(C)CCC(=O)NC(Cc1nnn[nH]1)C(=O)N1CCC[C@H]1C(=O)N[C@H](C=O)CCCNC(=N)N (stereo partly drawn) [4MeV-Ala(Tzl)-Pro-Arg-al, 3-tetrazolyl-2-(4-methylvaleroylamido) propionyl-L-prolyl-L-argininal]			500 nM				
CC(C)CCC(=O)N[C@@H](CC(=O)O)C(=O)N1CCC[C@H]1C(=O)N[C@H](C=O)CCCNC(=N)N [4MeV-Asp-Pro-Arg-al, N-(4-methylpentanoyl)-L-aspartyl-L-prolyl-L-argininal]	139 nM	74 nM					
N=C(N)NCCC[C@@H](C=O)NC(=O)[C@@H]1CCCN1C(=O)[C@H](CC(=O)O)NC(=O)CCC1CCCCC1 [ChxPA-Asp-Pro-Arg-al, N-(3-cyclohexanepropionyl)-L-aspartyl-L-prolyl-L-argininal]	41 nM	24 nM					
